target: α-glucosidase (Saccharomyces cerevisiae, UniProt P53341); assay: biochemical; conditions: not given
Sequence (P53341 whole entry): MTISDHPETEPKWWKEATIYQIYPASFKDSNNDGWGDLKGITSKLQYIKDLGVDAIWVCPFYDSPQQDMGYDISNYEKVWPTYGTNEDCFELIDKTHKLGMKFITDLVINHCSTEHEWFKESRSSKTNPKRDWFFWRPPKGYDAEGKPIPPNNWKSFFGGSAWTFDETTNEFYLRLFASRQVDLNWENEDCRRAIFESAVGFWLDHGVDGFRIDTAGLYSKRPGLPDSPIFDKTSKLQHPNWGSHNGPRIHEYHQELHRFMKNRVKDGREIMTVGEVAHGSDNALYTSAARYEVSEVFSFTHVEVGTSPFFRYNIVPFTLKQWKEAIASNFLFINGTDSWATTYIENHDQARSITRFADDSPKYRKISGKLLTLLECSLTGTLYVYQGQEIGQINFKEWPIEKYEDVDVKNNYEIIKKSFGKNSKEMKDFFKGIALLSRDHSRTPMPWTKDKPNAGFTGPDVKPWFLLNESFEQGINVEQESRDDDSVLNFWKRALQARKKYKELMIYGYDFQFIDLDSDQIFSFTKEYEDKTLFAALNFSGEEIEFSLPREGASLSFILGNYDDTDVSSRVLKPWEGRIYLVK

Structure (SMILES) | IC50 [µM]
CC[C@H](C)C[C@@H](C)/C=C(\C)[C@@H]1O[C@H](c2c(O)c(-c3ccc(O)cc3)cn(C)c2=O)CC[C@H]1C [Compound 3, (–)-sambutoxin] | 16.9 ± 0.6
CCC(C)CC(C)C=C(C)C1OC(c2c(O)c(-c3ccc(O)cc3)cn(C)c2=O)CC=C1C (stereo not drawn) [Compound 2, Sambutoxin B] | 37.4 ± 1.4
CCC(C)CC(C)C=C(C)C1OC(c2c(O)c(-c3ccccc3)cn(C)c2=O)CCC1C (stereo not drawn) [Compound 1, Sambutoxin A] | 12.6 ± 0.9

same assay, conditions: positive control 1-deoxynojirimycin; DMSO blank; read-out: α-glucosidase inhibitory activity IC50

Structure (SMILES) | IC50 [µM]
COC1=CC(=O)C(C)(O)C(O)C1C (stereo not drawn) [Compound 12, Talaketides F] | > 100
COC1=CC(=O)C(C)(O)C(O)C1C (stereo not drawn) [Compound 11, Talaketides E] | > 100

same assay, conditions: read-out: α-glucosidase inhibitory activity IC50

Structure (SMILES) | IC50 [µM]
COC1=CC(=O)C(C)(O)C1(O)C(C)=O (stereo not drawn) [Compound 8, Talaketides B] | > 100
COC1=CC(=O)C(C)(O)C(O)C1C (stereo not drawn) [Compound 10, Talaketides D] | > 100
C/C=C/[C@@H]1Oc2c(-c3ccccc3)c[nH]c(=O)c2[C@@H]2[C@H]1CCC[C@H]2C [Compound 5, deoxyleporin B] | 57.3 ± 1.3
C/C=C/[C@@H]1Oc2c(-c3ccccc3)cn(O)c(=O)c2[C@@H]2[C@H]1CCC[C@H]2C [Compound 6, leporine B] | > 100
CCC(C)C(=O)OC1(C)C(=O)C(C)=C(OC)C1O (stereo not drawn) [Compound 7, Talaketides A] | > 100
CCC(C)C(=O)OC1(C)C(=O)C(C)=C(OC)CC1OC (stereo not drawn) [Compound 9, Talaketides C] | > 100
C/C=C/[C@@H]1[C@H]2C[C@@H](C)CC[C@@H]2C(C)=C[C@H]1C(=O)c1c(O)c(-c2ccc(O)cc2)c[nH]c1=O [Compound 4, ilicicolin H] | 16.5 ± 0.7

Source: publication PMC8465095, “Secondary Metabolites with α-Glucosidase Inhibitory Activity from Mangrove Endophytic Fungus Talaromyces sp. CY-3” (Marine Drugs, 2021)
